In ChEMBL document CHEMBL1201862, “PubChem BioAssay data set” (2004):
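Test compounds were applied to cells in 96-well plates for 48 hours at 5 doses. At the GI50, growth is halved.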 Activity calls are given as the source filed them. No stated cut-off is given here; in the data, active = GI50 up to about 1.1 µM and inactive = higher.

Columns and labels:
Experiment in all cases: NCI-60 cell line screen, 48 h
ACHN = tested on: ACHN
RPMI-8226 = tested on: RPMI-8226
SNB-75 = tested on: SNB-75
MDA-MB-435 = tested on: MDA-MB-435
BT-549 = tested on: BT-549
SF-295 = tested on: SF-295
HOP-62 = tested on: HOP-62
HCT-116 = tested on: HCT-116
SK-MEL-5 = tested on: SK-MEL-5
MDA-N = tested on: MDA-N
HCC 2998 = tested on: HCC 2998
SK-MEL-28 = tested on: SK-MEL-28
OVCAR-4 = tested on: OVCAR-4
K562 = tested on: K562
U-251 = tested on: U-251
UACC-62 = tested on: UACC-62
IGROV-1 = tested on: IGROV-1
Hs-578T = tested on: Hs-578T
MCF7 = tested on: MCF7
SF-268 = tested on: SF-268
SK-OV-3 = tested on: SK-OV-3
OVCAR-3 = tested on: OVCAR-3
HOP-92 = tested on: HOP-92
SK-MEL-2 = tested on: SK-MEL-2
UACC-257 = tested on: UACC-257
NCI-H460 = tested on: NCI-H460
NCI/ADR-RES = tested on: NCI/ADR-RES
A549 = tested on: A549
SF-539 = tested on: SF-539
HL-60 = tested on: HL-60
CCRF-CEM = tested on: CCRF-CEM
NCI-H522 = tested on: NCI-H522
OVCAR-8 = tested on: OVCAR-8
NCI-H23 = tested on: NCI-H23
HT-29 = tested on: HT-29
Malme-3M = tested on: Malme-3M
SNB-19 = tested on: SNB-19
KM12 = tested on: KM12
SW-620 = tested on: SW-620
CAKI-1 = tested on: CAKI-1
LOX IMVI = tested on: LOX IMVI
SR = tested on: SR
PC-3 = tested on: PC-3
OVCAR-5 = tested on: OVCAR-5
M14 = tested on: M14
786-0 = tested on: 786-0
TK-10 = tested on: TK-10
T47D = tested on: T47D
SN12C = tested on: SN12C
RXF 393 = tested on: RXF 393
NCI-H226 = tested on: NCI-H226
HCT-15 = tested on: HCT-15
A498 = tested on: A498
MDA-MB-231 = tested on: MDA-MB-231
EKVX = tested on: EKVX
COLO 205 = tested on: COLO 205
MOLT-4 = tested on: MOLT-4
DU-145 = tested on: DU-145
UO-31 = tested on: UO-31

SMILES: O=c1c2ccccc2nc(-c2ccccc2)n1/N=C/c1ccccc1[N+](=O)[O-]
- GI50 (ACHN): 27.8 µM (inactive)
- GI50 (RPMI-8226): > 100 µM (inactive)
- GI50 (SNB-75): 7.41 µM (inactive)
- GI50 (MDA-MB-435): > 100 µM (inactive)
- GI50 (BT-549): 31.3 µM (inactive)
- GI50 (SF-295): 22.8 µM (inactive)
- GI50 (HOP-62): 13.6 µM (inactive)
- GI50 (HCT-116): 40.5 µM (inactive)
- GI50 (SK-MEL-5): > 75.2 µM (inactive)
- GI50 (MDA-N): > 100 µM (inactive)
- GI50 (HCC 2998): > 100 µM (inactive)
- GI50 (SK-MEL-28): > 100 µM (inactive)
- GI50 (OVCAR-4): > 91.2 µM (inactive)
- GI50 (K562): > 100 µM (inactive)
- GI50 (U-251): 16.1 µM (inactive)
- GI50 (UACC-62): 79.6 µM (inactive)
- GI50 (IGROV-1): > 69.7 µM (inactive)
- GI50 (Hs-578T): 1.59 µM (inactive)
- GI50 (MCF7): > 78.2 µM (inactive)
- GI50 (SF-268): 16.3 µM (inactive)
- GI50 (SK-OV-3): 19.6 µM (inactive)
- GI50 (OVCAR-3): > 100 µM (inactive)
- GI50 (HOP-92): 29.2 µM (inactive)
- GI50 (SK-MEL-2): 74.5 µM (inactive)
- GI50 (UACC-257): > 100 µM (inactive)
- GI50 (NCI-H460): > 91.2 µM (inactive)
- GI50 (NCI/ADR-RES): 16.7 µM (inactive)
- GI50 (A549): > 100 µM (inactive)
- GI50 (SF-539): 19.9 µM (inactive)
- GI50 (HL-60): > 100 µM (inactive)
- GI50 (CCRF-CEM): > 100 µM (inactive)
- GI50 (NCI-H522): > 53.2 µM (inactive)
- GI50 (OVCAR-8): > 46.2 µM (inactive)
- GI50 (NCI-H23): 15.3 µM (inactive)
- GI50 (HT-29): > 100 µM (inactive)
- GI50 (Malme-3M): > 100 µM (inactive)
- GI50 (SNB-19): 17 µM (inactive)
- GI50 (KM12): 57.4 µM (inactive)
- GI50 (SW-620): > 100 µM (inactive)
- GI50 (CAKI-1): > 100 µM (inactive)
- GI50 (LOX IMVI): > 100 µM (inactive)
- GI50 (SR): > 100 µM (inactive)
- GI50 (PC-3): > 100 µM (inactive)
- GI50 (OVCAR-5): > 100 µM (inactive)
- GI50 (M14): > 100 µM (inactive)
- GI50 (786-0): 21.9 µM (inactive)
- GI50 (TK-10): 28.3 µM (inactive)
- GI50 (T47D): 86.9 µM (inactive)
- GI50 (SN12C): > 74.8 µM (inactive)
- GI50 (RXF 393): 19.3 µM (inactive)
- GI50 (NCI-H226): 61.1 µM (inactive)
- GI50 (HCT-15): > 100 µM
- GI50 (A498): > 75.2 µM (inactive)
- GI50 (MDA-MB-231): 17.7 µM (inactive)
- GI50 (EKVX): > 51.1 µM (inactive)
- GI50 (COLO 205): > 100 µM (inactive)
- GI50 (MOLT-4): > 100 µM (inactive)
- GI50 (DU-145): > 100 µM (inactive)

SMILES: COc1ccc(C(C#N)NCCCCCCNC(C#N)c2ccc(OC)cc2)cc1 (stereo unspecified)
- GI50 (ACHN): > 100 µM (inactive)
- GI50 (RPMI-8226): > 100 µM (inactive)
- GI50 (SNB-75): > 100 µM (inactive)
- GI50 (MDA-MB-435): > 100 µM (inactive)
- GI50 (BT-549): > 100 µM (inactive)
- GI50 (SF-295): > 100 µM (inactive)
- GI50 (HOP-62): > 100 µM (inactive)
- GI50 (HCT-116): > 100 µM (inactive)
- GI50 (SK-MEL-5): > 100 µM (inactive)
- GI50 (MDA-N): > 100 µM (inactive)
- GI50 (HCC 2998): > 100 µM (inactive)
- GI50 (SK-MEL-28): > 100 µM (inactive)
- GI50 (OVCAR-4): > 100 µM (inactive)
- GI50 (K562): > 100 µM (inactive)
- GI50 (U-251): > 100 µM (inactive)
- GI50 (UACC-62): > 100 µM (inactive)
- GI50 (IGROV-1): > 100 µM (inactive)
- GI50 (Hs-578T): > 100 µM (inactive)
- GI50 (MCF7): > 100 µM (inactive)
- GI50 (SF-268): > 100 µM (inactive)
- GI50 (SK-OV-3): > 100 µM (inactive)
- GI50 (OVCAR-3): > 100 µM (inactive)
- GI50 (HOP-92): > 100 µM (inactive)
- GI50 (SK-MEL-2): > 100 µM (inactive)
- GI50 (UACC-257): > 100 µM (inactive)
- GI50 (NCI/ADR-RES): > 100 µM (inactive)
- GI50 (A549): > 100 µM (inactive)
- GI50 (SF-539): > 100 µM (inactive)
- GI50 (HL-60): > 100 µM (inactive)
- GI50 (CCRF-CEM): > 100 µM (inactive)
- GI50 (NCI-H522): > 100 µM (inactive)
- GI50 (OVCAR-8): > 100 µM (inactive)
- GI50 (NCI-H23): > 100 µM (inactive)
- GI50 (HT-29): > 100 µM (inactive)
- GI50 (Malme-3M): > 100 µM (inactive)
- GI50 (SNB-19): > 100 µM (inactive)
- GI50 (KM12): > 100 µM (inactive)
- GI50 (SW-620): > 100 µM (inactive)
- GI50 (CAKI-1): > 100 µM (inactive)
- GI50 (LOX IMVI): > 100 µM (inactive)
- GI50 (SR): > 100 µM (inactive)
- GI50 (PC-3): > 100 µM (inactive)
- GI50 (OVCAR-5): > 100 µM (inactive)
- GI50 (M14): > 100 µM (inactive)
- GI50 (786-0): > 100 µM (inactive)
- GI50 (UO-31): > 100 µM (inactive)
- GI50 (TK-10): > 100 µM (inactive)
- GI50 (T47D): > 100 µM (inactive)
- GI50 (SN12C): > 100 µM (inactive)
- GI50 (RXF 393): > 100 µM (inactive)
- GI50 (NCI-H226): > 100 µM (inactive)
- GI50 (HCT-15): > 100 µM
- GI50 (A498): > 100 µM (inactive)
- GI50 (MDA-MB-231): > 100 µM (inactive)
- GI50 (EKVX): > 100 µM (inactive)
- GI50 (COLO 205): > 100 µM (inactive)
- GI50 (MOLT-4): > 100 µM (inactive)
- GI50 (DU-145): > 100 µM (inactive)
